Test results: patent publication US20250099491A1, “PREVENTION OR TREATMENT OF CARDIOVASCULAR DISEASES WITH HIGH PENETRATION PRODRUGS OF ASPIRIN AND OTHER NSAIDS” (Techfields Inc., priority 2022, published 2025)

Assays:
[1] = tested on: rats with acute ischemia induced by Middle Cerebral Artery Occlusion (MCAO); assay: Example 14: acute ischemia induced by middle cerebral artery occlusion (MCAO) in rats; type: in vivo, rat; settings: for mortalities: deaths of animals in group; for infarct volume: Day 14 after MCAO, TTC staining, mean±SEM
[2] = tested on: myocardial infarction in minipigs; assay: Example 20: myocardial infarction efficacy study in minipigs (circumflex coronary artery thrombosis); type: in vivo, minipig; settings: twice a day; for infarct volume (myocardial): 28 days after MCA thrombosis
Description: Total 24 male minipigs were used for this study. […] The minipigs were already quarantined and acclimated. Before animal being transferred from holding colony, a physical examination was performed and the acceptability of the animals for the study was evaluated by veterinary. […] [table] […] Under anesthesia, thoracotomy was carried out and the circumflex coronary artery of the heart was exposed. The circumflex coronary artery thrombosis was induced by photochemical reaction. […] Photoirradiation was continued for a 30 min. […] After cutting the femoral artery, thoracotomy was carried out and the heart was removed. […] TTC regent for 5 min. After staining with TTC reagent, the photograph of the heart 5 blocks was taken. All blocks were immersed in 10% formalin neutral buffer solution. The 2nd block appeared large necrotic area was cut sections (thickness: 7-8 μm). Slice was stained with H & E reagent. […] The infarct lesions were defined as a necrotic portion of TTC stained blocks. […] The histopathological alteration (necrosis, inflammation, granulation, etc.) of myocardial infarction was examined using H & E stained slides.

[3] = tested on: rats, minipigs, rabbits, guinea pigs, Ames, CHO-WBL Cells; assay: Nonclinical pharmacology and toxicology battery; type: in vivo; settings: battery of GLP dermal toxicity, genotoxicity, safety pharmacology, irritation and sensitization studies
Description: A battery of pharmacology and toxicology studies were conducted to support early clinical trials, including a GLP acute dermal maximum tolerated dose study in rats, a GLP acute dermal maximum tolerated dose study in minipigs, a 28-day GLP repeated dermal dose toxicity and toxicokinetics study in rats with 14-day recovery, a 28-day GLP repeated dermal dose toxicity and toxicokinetics study in minipigs with 14-day recovery, a GLP bacterial reverse mutation assay (Ames), a GLP in vitro chromosome aberration assay in CHO-WBL Cells, a GLP in vivo bone marrow micronucleus assay in rats, a behavioral effects in rats using the functional observational battery, a rat respiratory safety pharmacology study, a cardiovascular telemetry study in the unrestrained conscious minipigs, a skin irritation study in rabbits, and a sensitization test in guinea pigs.

[4] = following topical spray
Description: Each cohort began with single dose administration of study drug on Day 1 of the cohort's study schedule.
For single dose PK analysis, serial blood samples were collected following the Day 1 dose at the following time points: 0 (pre-dose), 0.25, 0.5, 0.75, 1, 1.5, 2, 2.5, 3, 4, 5, 6, 8, 10, 12, 18, 24, 48, 72, 96 and 120 hours post-dose. For multiple-dose PK analysis, serial blood samples were collected following the last morning dose on Day 12 according to the same schedule used for the single-dose PK analysis. In addition, daily trough PK samples were collected prior to the morning dose on Days 7 through 11.

[5] = high dose 30 mg/kg/time transdermal
[6] = low dose 15 mg/kg/time transdermal

CCN(CC)CCOC(=O)c1ccccc1OC(C)=O.Cl [Compound-1]
mortalities ([1]; high dose 60 mg/kg topical bid): 0 of 25
infarct volume ([1]; low dose 15 mg/kg topical bid 14 days): 32.07%±2.061
neuroprotective effect on brain ischemic injury ([1]; low, middle and high dose groups compared to vehicle group): good neuroprotective effect
neurological deficit scores ([1]; low, middle and high dose groups vs vehicle group): show differences significantly
body weight ([1]; low, middle and high dose groups, Day 5-14, vs vehicle group by t-test): increased
infarct volume ([1]; middle dose 30 mg/kg topical bid 14 days): 27.11%±1.658
mortalities ([1]; middle dose 30 mg/kg topical bid): 0 of 25
degeneration of myocardium and myocardial necrosis (histopathology) [2, 5]: slight
infarct volume (myocardial) [2, 5]: 138 mm^3
degeneration of myocardium and myocardial necrosis (histopathology) [2, 6]: slight
infarct volume (myocardial) [2, 6]: 177 mm^3
nonclinical safety and tolerability [3]: safe and generally well tolerated
converted to salicylic acid [4]: ≥ 99%
